In the test the test system is KRAS-mutant PDC multicell tumor spheroid viability. The test is described as follows: Anticancer human tumor 521955-158-R2-J5-PDC patient-derived pancreatic carcinoma cell line growth inhibition [KRAS2]. The following applies: for viability, T/C: stronger effect = lower value. From the text: Multicellular complex tumor spheroid response to RAS pathway inhibitors in combination with a targeted agents in patient-derived cell lines with oncogenic KRAS variants from multiple cancer types
A high-throughput screen of multi-cell type tumor spheroids was designed to identify active combinations of targeted small molecules and KRAS pathway inhibitors. Complex spheroids include a stromal component modeled by human endothelial cells (HUVEC) and fibroblasts modeled by human mesenchymal stem cells (MSCs). The concentration ranges selected for each drug and investigational agent were based upon clinically achievable concentrations if the clinical Cmax of the agent was known.
Compounds. The drugs and investigational agents: BI-3406 (NSC825286), BAY-293 (NSC824723), batoprotafib (TNO155; NSC825523), sotorasib (AMG 510; NSC818433), MRTX1257 (NSC819558), elimusertib (BAY 1895344; NSC800525), molibresib (GSK525762; NSC774829), temuterkib (LY3214996; NSC803410), venetoclax (NSC766270), alisertib (NSC759677), olaparib (NSC753686), talazoparib (NSC767125), erdafitinib (NSC781556), ipatasertib (NSC767898), cabozantinib (NSC761068), nintedanib (NSC756659), abemaciclib (NSC768073), docetaxel (NSC628503), trametinib (NSC758246), and sapanisertib (NSC764658) were obtained from the National Cancer Institute (NCI) Developmental Therapeutics Program Chemical Repository. The FDA-approved anticancer drug set is available from the Developmental Therapeutics Program. […] The stock solutions were prepared in dimethyl sulfoxide (DMSO, Sigma-Aldrich, St. Louis, MO, cat. D2650) at 800-fold the tested concentration and stored at -70 degrees C prior to their use. All drugs and investigational agents were tested over a range starting from a high concentration at or near the clinical Cmax and decreasing in half-log increments. If the clinical Cmax for an agent had not been determined, the highest concentration tested was 10 microM.
Cell Culture. All cells were maintained in an incubator at 37 degrees C and 5% CO2 with 95% humidity. The PDC lines were cultured according to standard operating procedures established by the NCI PDMR (https://pdmr.cancer.gov/sops/default.htm). Briefly, all PDCs were thawed and cultured in Matrigel-coated flasks prepared with a working solution of 1X Ham's F-12 nutrient mix, without supplementation (Invitrogen, Waltham, MA, cat. 11765054), 100 U/mL penicillin-streptomycin (Invitrogen, cat. 15140122), and 2.5% Matrigel (Corning Inc., Corning, NY, cat. 354248) for the first three passages. All PDCs were cultured in complete DMEM/F-12 media containing advanced DMEM/F-12 (Invitrogen, cat. 12634028), 4.9% defined fetal bovine serum, heat inactivated (HyClone Laboratories Inc., Logan, UT, cat. SH30070.03HI), 389 ng/mL hydrocortisone (Sigma-Aldrich, cat. H4001), 9.7 ng/mL human EGF recombinant protein (Invitrogen, cat. PHG0313), 23.4 microg/mL adenine (Sigma-Aldrich, cat. A2786), 97.3 U/mL penicillin-streptomycin (Invitrogen, cat. 15140122), 1.9 mM L-glutamine (Invitrogen, cat. 25030081), and 9.7 microM Y-27632 dihydrochloride (Tocris Bioscience, Bristol, United Kingdom, cat. 1254). The PDCs were cultured in complete DMEM/F12 media without 9.7 microM Y-27632 dihydrochloride for at least two passages prior to the screen. The established cell line HOP-62 was cultured in RPMI 1640 medium, HEPES (Invitrogen, cat. 22400105) with 10% defined fetal bovine serum (HyClone Laboratories Inc., cat. SH30070.03) and 2 mM L-glutamine (Invitrogen, cat. 25030081). The pooled donor HUVEC were cultured in endothelial cell growth medium 2 (PromoCell, Heidelberg, Germany, cat. C-22011) and the hMSC were cultured in mesenchymal stem cell growth medium 2 (PromoCell, cat. C-28009). For all experiments, HUVEC and hMSC were used at passages </=5, while the malignant cell lines were used at passages </=15. […]

The mark [1] stands for this setting: compound alone, run of 08/26/2021.
[2] abbreviates: compound alone, run of 09/02/2021.

Each structure is given as a SMILES string.

Drawing on PubChem BioAssay AID1963871 (Molecular Pharmacology Branch, DTP, NCI, 2024), this text covers viability, T/C and IC50 for seven compounds.

For orientation: viability, T/C means the ratio of treated to control. As a reminder, the IC50 is the concentration that inhibits the measured activity by half.
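Also: viability read after seven days of drug exposure.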

On to `C=CC(=O)N1CCN(c2nc(=O)n(-c3c(C)ccnc3C(C)C)c3nc(-c4c(O)cccc4F)c(F)cc23)C(C)C1` (centres undefined), for which the viability, T/C was 105% [middle of 17 runs] (compound 0.1 µM) and 66.7% [middle of 17 runs] (compound 10 µM). For the same compound, the IC50 (compound alone, run of 08/19/2021) is over 10 µM; the concentration for half-maximal inhibition (IC50) under setting [1] is over 10 µM; the half-inhibitory concentration (IC50) under setting [2] was over 10 µM.

For the compound `C=CC(=O)N1CCN(c2nc(OCC3CCCN3C)nc3c2CCN(c2cccc4cccc(C)c24)C3)CC1CC#N` (centres undefined), the IC50 is, setting by setting: under setting [1], 1.71 µM [middle of 5 runs]; under setting [2], 1.82 µM [middle of 6 runs].

For `CNCc1ccccc1-c1csc(C(C)Nc2nc(C)nc3cc(OC)c(OC)cc23)c1` (centres undefined), the viability, T/C is 93.3% [middle of 17 runs] (compound 0.1 µM), 93.4% [middle of 17 runs] (compound 0.316 µM) and 0.16% [middle of 15 runs] (compound 10 µM). Further, the IC50 reads like this: under setting [1], 1.68 µM [middle of 5 runs]; under setting [2], 1.82 µM [middle of 6 runs].

As to `COC(=O)c1ccc2c(C(=Nc3ccc(N(C)C(=O)CN4CCN(C)CC4)cc3)c3ccccc3)c(O)[nH]c2c1`, the viability, T/C is, setting by setting: (compound 0.0316 µM) 102% [middle of 5 runs]; (compound 0.1 µM) 105% [middle of 5 runs]; (compound 10 µM) 0.29% [middle of 5 runs]. Besides, the concentration for half-maximal inhibition (IC50) (curve of compound) is 2.06 µM [middle of 5 runs].

Consider `COc1cc2nc(C)nc(NC(C)c3cc(N)cc(C(F)(F)F)c3)c2cc1OC1CCOC1` (centres undefined), for which, for the setting “compound 0.1 µM”, the viability, T/C is 87.8% [middle of 17 runs]. For the same compound, the IC50 was over 10 µM under setting [1] and over 10 µM under setting [2].

In the case of `COc1cc2nccc(Oc3ccc(NC(=O)C4(C(=O)Nc5ccc(F)cc5)CC4)cc3)c2cc1OC`, the viability, T/C is, setting by setting: (compound 0.0316 µM) 99.7% [middle of 5 runs]; (compound 0.1 µM) 98.8% [middle of 4 runs]; (compound 0.316 µM) 103% [middle of 5 runs]; (compound 1 µM) 109% [middle of 5 runs]; (compound 10 µM) 39.7% [middle of 5 runs].

For the compound `CC(=O)OC12COC1CC(O)C1(C)C(=O)C(O)C3=C(C)C(OC(=O)C(O)C(NC(=O)OC(C)(C)C)c4ccccc4)CC(O)(C(OC(=O)c4ccccc4)C21)C3(C)C` (centres undefined) + C=CC(=O)N1CCN(c2nc(=O)n(-c3c(C)ccnc3C(C)C)c3nc(-c4c(O)cccc4F)c(F)cc23)C(C)C1, the IC50 (curve of first compound, second compound 0.1 µM) was under 0.01 µM; the concentration for half-maximal inhibition (IC50) (curve of first compound, second compound 0.316 µM) is under 0.01 µM; the 50% inhibitory concentration (IC50) (curve of first compound, second compound 1 µM) was under 0.01 µM; the IC50 (curve of first compound, second compound 3.16 µM) was under 0.01 µM; the IC50 (curve of first compound, second compound 10 µM) was under 0.01 µM. Besides, the viability, T/C is 21.5% (second compound 0.1 µM, first compound 0.01 µM); 15.5% (second compound 0.1 µM, first compound 0.0316 µM); 15.1% (second compound 0.1 µM, first compound 0.1 µM); 15.4% (second compound 0.1 µM, first compound 0.316 µM); 15.7% (second compound 0.1 µM, first compound 1 µM); 17.4% (second compound 0.1 µM, first compound 3.16 µM). The viability, T/C is 22.5% (second compound 0.316 µM, first compound 0.01 µM); 13.3% (second compound 0.316 µM, first compound 0.0316 µM); 11.5% (second compound 0.316 µM, first compound 0.1 µM); 12.6% (second compound 0.316 µM, first compound 0.316 µM); 13.6% (second compound 0.316 µM, first compound 1 µM); 20% (second compound 0.316 µM, first compound 3.16 µM). For the same compound, the viability, T/C is 15% (second compound 1 µM, first compound 0.01 µM); 10.9% (second compound 1 µM, first compound 0.0316 µM); 10.9% (second compound 1 µM, first compound 0.1 µM); 12% (second compound 1 µM, first compound 0.316 µM); 11.9% (second compound 1 µM, first compound 1 µM); 12.1% (second compound 1 µM, first compound 3.16 µM). The viability, T/C was 17.5% (second compound 3.16 µM, first compound 0.01 µM); 10.9% (second compound 3.16 µM, first compound 0.0316 µM); 6.69% (second compound 3.16 µM, first compound 0.1 µM); 7.49% (second compound 3.16 µM, first compound 0.316 µM); 11.8% (second compound 3.16 µM, first compound 1 µM); 16.2% (second compound 3.16 µM, first compound 3.16 µM). Further, the viability, T/C is, setting by setting: (second compound 10 µM, first compound 0.01 µM) 20.7%; (second compound 10 µM, first compound 0.0316 µM) 13.1%; (second compound 10 µM, first compound 0.1 µM) 9.39%; (second compound 10 µM, first compound 0.316 µM) 9.36%; (second compound 10 µM, first compound 1 µM) 12.5%; (second compound 10 µM, first compound 3.16 µM) 12.7%.
